The values that follow are results of earlier work, collected in patent US6224863A, “Antibiotic composition from alcaligenes species and method for making and using the same” (University of South Carolina, priority 1998, dated 2001).

One data set relates to S. epidermidis. Particulars: strains of S. epidermidis.
In another data set the test system is Staphylococcus aureus. Particulars: strains of Staphylococcus aureus.

The structures appear in SMILES notation.

Turning to `CCCCCc1cc(O)c2ccccc2n1` [2-n-pentylquinolinol], in the data set on Vibrio harveyi, the antibiotic activity entry is “exhibits activity”. For `C=C(CC/C=C\C=C\CC(C)CC(=O)CC(O)CNC(=O)C(C)C(C)OC(N)=O)CC(C)C/C(C)=C/C(=O)O` (centres unmarked) [kalimantacin A], the antibacterial activity result in the data set with S. epidermidis and in the data set with Staphylococcus aureus was “only effective” each time. As to `C=C(CC/C=C/C=C/CC(C)CC(=O)CC(O)CNC(=O)C(C)C(C)OC(N)=O)CC(C)C/C(C)=C/C(=O)O` (centres unmarked) [kalimantacin B], the antibacterial activity entry with S. epidermidis and in the data set with Staphylococcus aureus was “only effective” throughout. In the case of `C=C(CC/C=C\C=C\CC(C)CC(=O)CC(O)CNC(=O)CC(C)OC(N)=O)CC(C)C/C(C)=C/C(=O)O` (centres unmarked) [kalimantacin C], the antibacterial activity entry with S. epidermidis and in the data set on Staphylococcus aureus was “only effective” in each case. As for `Brc1[nH]c(Br)c(Br)c1Br` [tetrabromopyrrole], in the data set on other marine bacteria, the antibiotic activity entry is “effective against other marine bacteria”.
